Experiments:
[1] = in vivo; details: CD-1 nude, mouse, ip
[2] = system: SiHa human tumour xenografts; test: SiHa xenograft excision / clonogenic assay, with or without 15 Gy radiation; assay type: in vivo; details: for Log kill, cmpd after radiation: single i.p. dose 5 min after 15 Gy, relative to radiation only; for Log kill, cmpd only, Mean ± sem: single i.p. dose, no radiation, relative to vehicle controls, excision 18 h
[3] = system: WiDr (NTR+ve); test: Cell proliferation (sulphorhodamine B) IC50, NTR-transfected WiDr human colon cells; assay type: cell-based; details: for WiDr WT:NTR IC50 Ratio: 4 h, sensitivity ratio for NTR expression; for IC50: 4 h drug exposure, growth 5 further days
[4] = system: A549 (P450R+ve); test: Cell proliferation (sulphorhodamine B) IC50, P450R-transfected A549 human lung cells, anoxia vs 20% O2; assay type: cell-based; details: for A549 (P450R+ve) 20% O2/anoxia IC50 Ratio: 4 h, sensitivity ratio for hypoxia
[5] = A549, 4 h drug exposure under 0% oxygen
[6] = 4 h drug exposure under 0% oxygen

Molecule	WiDr WT:NTR IC50 Ratio [3]	IC50 ([3]; WiDr)	A549 (P450R+ve) 20% O2/anoxia IC50 Ratio [4]	also measured
O=C(NCCCOP(=O)(O)O)c1cc(N(CCBr)CCBr)c([N+](=O)[O-])cc1[N+](=O)[O-] [Ia-8P, 3-[[5-[Bis(2-Bromoethyl)Amino]-2,4-Dinitrobenzoyl]Amino]Propyl Dihydrogen Phosphate]				MTD [1]: 1000 µmol/kg
2-[(2-Bromoethyl)-2,4-Dinitro-3-[[[3-(Phosphonooxy)Propyl]Amino]-Carbonyl]Anilino]Ethyl Methanesulfonate [Ic-13P]				Log kill, cmpd after radiation ([2]; 20% of MTD): 1.60 ± 0.20; Log kill, cmpd after radiation ([2]; 75% of MTD): ≧3.23 ± 0.08; Log kill, cmpd only, Mean ± sem ([2]; 75% of MTD): 2.36 ± 0.28
O=C(NCCCCCO)c1cc(N(CCBr)CCBr)c([N+](=O)[O-])cc1[N+](=O)[O-] [IIa-10, N-(5-Hydroxypentyl)-5-[Bis(2-Bromoethyl)Amino]-2,4-Dinitrobenzamide]	22	10000 nM		
O=C(NCCO)c1cc(N(CCI)CCI)c([N+](=O)[O-])cc1[N+](=O)[O-] [IIa-14, 5-[Bis(2-Iodoethyl)Amino]-N-(2-Hydroxyethyl)-2,4-Dinitrobenzamide]	49	2900 nM	4.5	IC50 [4, 5]: 13000 nM
2-((2-Bromoethyl)-2-{[(2-Hydroxyethyl)Amino]Carbonyl}-4,6-Dinitroanilino)Ethyl Methanesulfonate [IIb-12]	48		133	IC50 [3]: 400 nM; IC50 [4, 6]: 280 nM
2-[(2-Bromoethyl)-2,4-Dinitro-3-[[[2-(Phosphonooxy)Ethyl]Amino]-Carbonyl]Anilino]Ethyl Methanesulfonate [Ic-12P]				Log kill, cmpd after radiation ([2]; 20% of MTD): 2.03 ± 0.25; Log kill, cmpd after radiation ([2]; 75% of MTD): ≧2.96 ± 0.31; Log kill, cmpd only, Mean ± sem ([2]; 75% of MTD): 1.04 ± 0.29
O=C(NCCCCO)c1cc([N+](=O)[O-])cc([N+](=O)[O-])c1N(CCBr)CCBr [IIb-9, 2-[Bis(2-Bromoethyl)Amino]-N-(4-Hydroxybutyl)-3,5-Dinitrobenzamide]	5	900 nM	20	IC50 [4, 5]: 1400 nM
O=C(NCCCCCO)c1cc([N+](=O)[O-])cc([N+](=O)[O-])c1N(CCCl)CCCl [IIb-5, 2-[Bis(2-Chloroethyl)Amino]-N-(5-Hydroxypentyl)-3,5-Dinitrobenzamide]	19	13000 nM		
O=P1(N(CCCl)CCCl)NCCCO1 (stereo not drawn) [Cyclophosphamide, reference compound]				Activity against hypoxic cells ([2]; 20% of respective MTDs, after radiation): lacked activity; MTD [1]: 750 µmol/kg
2-[(2-Bromoethyl)-2,4-Dinitro-6-[[[2-(Phosphonooxy)Ethyl]Amino]-Carbonyl]Anilino]Ethyl Methanesulfonate [Ib-12P]				Log kill, cmpd after radiation ([2]; 20% of MTD): 1.65 ± 0.19; Log kill, cmpd after radiation ([2]; 75% of MTD): ≧3.38 ± 0.28; Log kill, cmpd only, Mean ± sem ([2]; 75% of MTD): 1.32 ± 0.30
2-[Bis(2-Chloroethyl)Amino]-N-(6-Hydroxybexyl)-3,5-Dinitrobenzamide [IIb-6]	5			IC50 [3]: 27000 nM
2-((2-Iodoethyl)-2-{[(2-Hydroxyethyl)Amino]Carbonyl}-4,6-Dinitroanilino)Ethyl Methanesulfonate [IIb-15]	31		118	IC50 [3]: 300 nM; IC50 [4, 6]: 280 nM
O=C(NCCCO)c1cc(N(CCCl)CCCl)c([N+](=O)[O-])cc1[N+](=O)[O-] [IIa-3, N-(3-Hydroxypropyl)-5-[bis(2-Chloroethyl)Amino]-2,4-Dinitrobenzamide]	36	47000 nM	23	IC50 [4, 5]: 54000 nM
O=C(NCCOP(=O)(O)O)c1cc([N+](=O)[O-])cc([N+](=O)[O-])c1N(CCCl)CCCl [Ib-2P, 2-[[2-[Bis(2-Chloroethyl)Amino]-3,5-Dinitrobenzoyl]Amino]Ethyl Dihydrogen Phosphate]				MTD [1]: 237 µmol/kg
O=C(NCCCO)c1cc(N(CCBr)CCBr)c([N+](=O)[O-])cc1[N+](=O)[O-] [IIa-8, N-(3-Hydroxypropyl)-5-[Bis(2-Bromoethyl)Amino]-2,4-Dinitrobenzamide]	224	1600 nM	6.6	IC50 [4, 5]: 23000 nM
2-((2-Bromoethyl)-2-{[(2-Hydroxypropyl)Amino]Carbonyl}-4,6-Dinitroanilino)Ethyl Methanesulfonate [IIb-13]	27		138	IC50 [3]: 300 nM; IC50 [4, 6]: 150 nM
O=C(NCCO)c1c([N+](=O)[O-])ccc(N(CCBr)CCBr)c1[N+](=O)[O-] [IIc-7, 3-[Bis(2-Bromoethyl)Amino]-N-(2-Hydroxyethyl)-2,6-Dinitrobenzamide]	46	10000 nM	40	IC50 [4, 5]: 3900 nM

From patent publication US7629332B2, “Nitrophenyl mustard and nitrophenylaziridine alcohols and their corresponding phosphates and their use as targeted cytotoxic agents” (Auckland Uniservices Limited, priority 2003, dated 2009)
